Legend:
Assay type in all cases: biochemical
[1] = molecular target: T1, KIAA 1361 (baculovirus expressed human KIAA 1361 kinase domain 2-322) (Homo sapiens, UniProt Q7L7X3); test: KIAA 1361 Luciferase-Coupled Chemiluminescent Kinase assay (LCCA); conditions: 2 μM ATP, 10 μM MBP, 12 nM KIAA 1361, 2 hours; read-out: KIAA1361 inhibition IC50
T1 construct: human KIAA 1361 kinase domain 2-322; made in house
T1 sequence (Q7L7X3 2-322): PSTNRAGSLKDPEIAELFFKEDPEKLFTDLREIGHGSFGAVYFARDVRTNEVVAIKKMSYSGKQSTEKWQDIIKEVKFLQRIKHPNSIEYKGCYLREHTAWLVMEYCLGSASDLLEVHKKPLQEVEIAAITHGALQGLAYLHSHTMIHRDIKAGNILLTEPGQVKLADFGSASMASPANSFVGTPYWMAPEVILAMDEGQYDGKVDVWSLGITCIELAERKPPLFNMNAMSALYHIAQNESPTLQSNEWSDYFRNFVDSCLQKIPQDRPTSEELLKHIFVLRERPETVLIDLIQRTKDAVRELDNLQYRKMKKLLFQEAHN
Outline: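 KIAA 1361 kinase domain 2-322 (baculovirus, 12 nM) with 2 μM ATP and 10 μM MBP in Tris pH 7.5, MgCl2, MnCl2; 2 h, ambient. Remaining ATP read by luciferase chemiluminescence; 10 concentrations, IC50 by four-parameter fit.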

JIK = molecular target: T2, JIK (Homo sapiens, UniProt Q9H2K8); test: JIK Luciferase-Coupled Chemiluminescent Kinase assay (LCCA); conditions: 2 μM ATP, 10 μM MBP, 6 nM JIK, 2 hours; read-out: JIK inhibition IC50
T2 construct: 6 nM JIK (baculovirus expressed human KIAA 1361 kinase domain2-318); made in house
T2 sequence (Q9H2K8 2-318): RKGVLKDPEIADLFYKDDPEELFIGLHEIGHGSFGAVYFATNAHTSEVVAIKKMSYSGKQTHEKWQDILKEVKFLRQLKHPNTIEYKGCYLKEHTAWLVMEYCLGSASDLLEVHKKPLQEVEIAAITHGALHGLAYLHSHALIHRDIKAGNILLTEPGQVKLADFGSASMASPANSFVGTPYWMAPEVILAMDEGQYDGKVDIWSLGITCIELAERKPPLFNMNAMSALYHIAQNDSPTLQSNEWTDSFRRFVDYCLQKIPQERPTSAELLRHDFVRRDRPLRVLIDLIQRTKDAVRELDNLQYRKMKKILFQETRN
Outline: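 Baculovirus-expressed human KIAA 1361 kinase domain 2-318 at 6 nM, with 10 μM MBP and 2 μM ATP in Tris pH 7.5 with Mg/Mn, ran 2 h at ambient temperature. Remaining ATP was read by luciferase chemiluminescence. IC50 comes from a 10-concentration four-parameter fit.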

TAO = molecular target: T3, TAO (Homo sapiens, UniProt Q9UL54); test: TAO Luciferase-Coupled Chemiluminescent Kinase assay (LCCA); conditions: 2 μM ATP, 10 μM MBP, 12 nM TAO, 2 hours; read-out: TAO inhibition IC50
T3 sequence (Q9UL54 1-1235): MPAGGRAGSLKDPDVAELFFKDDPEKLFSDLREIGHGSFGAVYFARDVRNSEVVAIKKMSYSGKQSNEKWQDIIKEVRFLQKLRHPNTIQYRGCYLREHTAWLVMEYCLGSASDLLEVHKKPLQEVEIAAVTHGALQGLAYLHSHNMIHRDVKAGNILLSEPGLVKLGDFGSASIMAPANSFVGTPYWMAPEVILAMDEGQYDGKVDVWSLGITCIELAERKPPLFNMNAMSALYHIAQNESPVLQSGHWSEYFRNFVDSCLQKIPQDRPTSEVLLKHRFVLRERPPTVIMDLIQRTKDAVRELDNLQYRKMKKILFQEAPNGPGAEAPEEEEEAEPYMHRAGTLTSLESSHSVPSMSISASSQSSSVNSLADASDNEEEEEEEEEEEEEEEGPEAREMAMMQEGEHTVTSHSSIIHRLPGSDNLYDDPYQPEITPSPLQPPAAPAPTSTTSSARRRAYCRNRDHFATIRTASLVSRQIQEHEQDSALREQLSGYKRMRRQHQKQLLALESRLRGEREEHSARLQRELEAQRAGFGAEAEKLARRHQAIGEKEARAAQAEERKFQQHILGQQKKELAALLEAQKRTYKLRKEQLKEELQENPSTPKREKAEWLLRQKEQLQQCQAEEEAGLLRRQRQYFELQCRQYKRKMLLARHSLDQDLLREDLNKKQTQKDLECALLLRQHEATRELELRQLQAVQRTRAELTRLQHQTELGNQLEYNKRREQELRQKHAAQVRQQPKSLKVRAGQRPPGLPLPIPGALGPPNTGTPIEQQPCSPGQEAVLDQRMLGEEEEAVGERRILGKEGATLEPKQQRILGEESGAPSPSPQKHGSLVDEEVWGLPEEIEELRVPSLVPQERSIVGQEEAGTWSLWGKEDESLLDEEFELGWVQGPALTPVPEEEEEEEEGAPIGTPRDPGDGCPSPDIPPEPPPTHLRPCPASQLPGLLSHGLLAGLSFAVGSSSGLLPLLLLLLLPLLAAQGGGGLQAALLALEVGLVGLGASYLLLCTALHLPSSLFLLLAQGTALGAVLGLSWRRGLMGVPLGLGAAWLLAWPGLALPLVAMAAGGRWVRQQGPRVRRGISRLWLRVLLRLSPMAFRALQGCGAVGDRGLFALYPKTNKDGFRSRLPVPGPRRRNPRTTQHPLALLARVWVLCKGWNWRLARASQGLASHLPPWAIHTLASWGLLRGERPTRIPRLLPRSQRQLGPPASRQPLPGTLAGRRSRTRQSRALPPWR

COc1ccc2nc(NC(=O)CNC(=O)Cn3cnc4sc(C)c(C)c4c3=O)sc2c1 [Entry 40, N˜2˜-[(5,6-dimethyl-4-oxothieno[2,3-d]pyrimidin-3(4H)-yl)acetyl]-N-[6-(methyloxy)-1,3-benzothiazol-2-yl]glycinamide]
IC50 [1]: 50 to 500 nM | IC50 (JIK): 50 to 500 nM | IC50 (TAO): 500 to 5000 nM

— patent publication US20070208166A1, “Tao Kinase Modulators And Method Of Use” (Exelixis, Inc., priority 2003, published 2007)
